From ChEMBL document CHEMBL4414645, “Development of Robust 17(R),18(S)-Epoxyeicosatetraenoic Acid (17,18-EEQ) Analogues as Potential Clinical Antiarrhythmic Agents” (J Med Chem, 2019)
pIC50: −log10 of the molar value.

Tests used:
Cytochrome P450 2C8 = biological target: T1, Cytochrome P450 2C8 (Homo sapiens, UniProt P10632); assay: Inhibition of human CYP2C8 by fluorescence method; format: ADME
T1 sequence (P10632 whole entry): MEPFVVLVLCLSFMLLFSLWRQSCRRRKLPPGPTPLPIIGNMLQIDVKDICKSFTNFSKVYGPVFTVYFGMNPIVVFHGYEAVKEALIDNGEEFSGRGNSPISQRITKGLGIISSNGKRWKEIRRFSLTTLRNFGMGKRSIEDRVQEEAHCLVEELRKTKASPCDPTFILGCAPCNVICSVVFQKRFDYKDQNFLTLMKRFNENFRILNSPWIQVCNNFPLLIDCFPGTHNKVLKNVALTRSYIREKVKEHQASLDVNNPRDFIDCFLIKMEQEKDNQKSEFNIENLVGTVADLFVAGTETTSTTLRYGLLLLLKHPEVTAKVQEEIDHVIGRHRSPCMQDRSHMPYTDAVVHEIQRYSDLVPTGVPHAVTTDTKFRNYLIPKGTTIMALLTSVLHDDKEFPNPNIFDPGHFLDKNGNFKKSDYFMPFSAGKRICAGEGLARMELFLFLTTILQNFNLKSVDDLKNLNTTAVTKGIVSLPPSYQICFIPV

Cytochrome P450 2B6 = biological target: T2, Cytochrome P450 2B6 (Homo sapiens, UniProt P20813); assay: Inhibition of human CYP2B6 by fluorescence method; format: ADME
T2 sequence (P20813 whole entry): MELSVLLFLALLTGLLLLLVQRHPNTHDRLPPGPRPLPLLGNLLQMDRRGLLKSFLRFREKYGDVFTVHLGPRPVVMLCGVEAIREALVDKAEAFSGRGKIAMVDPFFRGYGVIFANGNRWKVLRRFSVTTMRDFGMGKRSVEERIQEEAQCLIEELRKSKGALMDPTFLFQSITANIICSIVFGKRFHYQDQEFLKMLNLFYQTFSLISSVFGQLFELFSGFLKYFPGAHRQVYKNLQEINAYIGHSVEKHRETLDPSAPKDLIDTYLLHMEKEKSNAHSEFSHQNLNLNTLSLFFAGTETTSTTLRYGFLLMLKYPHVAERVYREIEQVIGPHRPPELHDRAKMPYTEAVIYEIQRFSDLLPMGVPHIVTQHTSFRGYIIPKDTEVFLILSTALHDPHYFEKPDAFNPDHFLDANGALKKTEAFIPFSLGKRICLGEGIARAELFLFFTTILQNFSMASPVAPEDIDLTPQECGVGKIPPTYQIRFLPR

Cytochrome P450 1A2 = biological target: T3, Cytochrome P450 1A2 (Homo sapiens, UniProt P05177); assay: Inhibition of human CYP1A2 by fluorescence method; format: ADME
T3 sequence (P05177 whole entry): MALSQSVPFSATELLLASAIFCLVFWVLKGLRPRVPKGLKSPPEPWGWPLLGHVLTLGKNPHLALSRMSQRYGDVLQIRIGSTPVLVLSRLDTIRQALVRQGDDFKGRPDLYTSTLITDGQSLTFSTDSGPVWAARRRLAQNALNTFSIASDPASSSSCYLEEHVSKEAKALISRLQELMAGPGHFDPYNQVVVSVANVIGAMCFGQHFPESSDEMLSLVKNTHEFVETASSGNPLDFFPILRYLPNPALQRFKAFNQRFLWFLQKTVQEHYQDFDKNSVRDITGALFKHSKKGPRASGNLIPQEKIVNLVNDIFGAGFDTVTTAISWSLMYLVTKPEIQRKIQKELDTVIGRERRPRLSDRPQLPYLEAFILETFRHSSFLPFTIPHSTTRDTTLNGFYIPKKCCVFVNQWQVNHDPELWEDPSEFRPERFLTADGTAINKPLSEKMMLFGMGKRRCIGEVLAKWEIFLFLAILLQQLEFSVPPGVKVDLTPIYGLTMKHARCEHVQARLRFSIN

Cytochrome P450 2D6 = Cytochrome P450 2D6 (Homo sapiens, UniProt P10635); assay: Inhibition of human CYP2D6 by fluorescence method; format: ADME
Cytochrome P450 2D6, sequence (P10635 whole entry): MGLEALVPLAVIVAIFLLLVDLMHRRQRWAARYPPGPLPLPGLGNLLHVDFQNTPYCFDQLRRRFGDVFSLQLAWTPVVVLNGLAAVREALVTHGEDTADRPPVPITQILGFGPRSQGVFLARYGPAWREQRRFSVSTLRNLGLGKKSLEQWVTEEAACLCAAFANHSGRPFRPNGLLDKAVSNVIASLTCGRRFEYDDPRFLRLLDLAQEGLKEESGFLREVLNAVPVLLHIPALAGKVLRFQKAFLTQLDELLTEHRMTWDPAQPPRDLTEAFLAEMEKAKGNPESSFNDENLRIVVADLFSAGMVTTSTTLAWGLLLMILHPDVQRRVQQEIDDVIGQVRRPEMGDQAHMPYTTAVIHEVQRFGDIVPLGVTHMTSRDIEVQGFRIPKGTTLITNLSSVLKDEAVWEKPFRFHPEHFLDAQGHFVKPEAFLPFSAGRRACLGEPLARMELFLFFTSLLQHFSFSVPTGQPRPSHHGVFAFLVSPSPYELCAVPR

[1] = Negative chronotropic activity in Wistar rat neonatal cardiomyocytes assessed as change in basal beating rate after 7 mins by inverted microscopic method; format: functional
[2] = Elimination half life in Sprague-Dawley (RjHan:SD) rat at 3 mg/kg, po administered via gavage by LC-MS analysis; format: ADME, organism-based; conditions: in vivo, read-out: beta t1/2 (converted)
[3] = biological target: T4, Epoxide hydrolase 1/Bifunctional epoxide hydrolase 2 (Homo sapiens, UniProt P07099+P34913); assay: Drug metabolism in human liver microsomes assessed as microsomal/soluble epoxide hydrolase mediated formation of [+O + H2O] metabolites at 1 uM after 60 mins in absence of NADPH by LC-MS analysis; format: ADME; conditions: 1 h
T4 sequence (P07099 whole entry): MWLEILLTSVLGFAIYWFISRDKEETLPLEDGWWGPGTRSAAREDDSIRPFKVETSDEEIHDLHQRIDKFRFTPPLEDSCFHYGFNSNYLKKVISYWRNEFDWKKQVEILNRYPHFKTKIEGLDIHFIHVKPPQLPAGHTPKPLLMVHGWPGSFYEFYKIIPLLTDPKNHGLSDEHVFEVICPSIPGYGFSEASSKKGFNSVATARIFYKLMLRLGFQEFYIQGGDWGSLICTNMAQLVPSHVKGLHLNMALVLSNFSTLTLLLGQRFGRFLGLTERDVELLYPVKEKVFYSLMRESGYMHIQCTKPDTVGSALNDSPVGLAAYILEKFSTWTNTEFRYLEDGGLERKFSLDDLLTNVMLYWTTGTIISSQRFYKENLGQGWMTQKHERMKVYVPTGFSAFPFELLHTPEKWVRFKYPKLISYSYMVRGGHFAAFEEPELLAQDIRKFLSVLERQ
T4 sequence (P34913 whole entry): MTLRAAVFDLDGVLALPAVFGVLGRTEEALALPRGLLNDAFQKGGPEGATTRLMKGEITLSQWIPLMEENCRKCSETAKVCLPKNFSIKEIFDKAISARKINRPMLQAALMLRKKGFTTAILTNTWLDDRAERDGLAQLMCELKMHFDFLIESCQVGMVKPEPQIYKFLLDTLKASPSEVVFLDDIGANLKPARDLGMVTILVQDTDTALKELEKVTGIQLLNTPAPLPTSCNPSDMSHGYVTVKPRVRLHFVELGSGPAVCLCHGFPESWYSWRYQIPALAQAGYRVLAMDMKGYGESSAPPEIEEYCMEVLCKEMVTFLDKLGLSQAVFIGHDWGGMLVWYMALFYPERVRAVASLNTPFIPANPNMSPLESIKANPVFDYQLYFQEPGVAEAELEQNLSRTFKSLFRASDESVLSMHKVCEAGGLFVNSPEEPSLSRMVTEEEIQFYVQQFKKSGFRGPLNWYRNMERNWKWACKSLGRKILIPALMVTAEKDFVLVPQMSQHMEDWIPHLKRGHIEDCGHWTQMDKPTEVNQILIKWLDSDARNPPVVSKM

[4] = Oral bioavailability in Sprague-Dawley (RjHan:SD) rat at 3 mg/kg administered via gavage by LC-MS analysis; format: ADME, organism-based; conditions: in vivo

Structure (SMILES) | pIC50 (Cytochrome P450 2C8) | pIC50 (Cytochrome P450 2B6) | pIC50 (Cytochrome P450 1A2) | pIC50 (Cytochrome P450 2D6) | Activity [1] | half-life [2] | Drug metabolism [3] | bioavailability [4]
CNC(=O)C(=O)NCCCC/C=C\CCCCCCCOCC(=O)O | < 4.30 | < 4.30 | < 4.30 | < 4.30 | -33.6 bpm | 9.6 h | Metabolite_Notdetected | 100%
CNC(=O)C(=O)NCCCC/C=C\CCCCCCCCCC(=O)O | < 4.30 | < 4.30 | < 4.30 | < 4.30 | – | – | Metabolite_Notdetected | –
CNC(=O)C(=O)NCCCC/C=C\CCCCCCCCCc1nnn[nH]1 | < 4.30 | < 4.30 | < 4.30 | 4.36 | -30.9 bpm | 3.6 h | Metabolite_Notdetected | 35%
